Source: patent US20220089575A1, “FARNESOID X RECEPTOR AGONISTS AND USES THEREOF” (Metacrine, Inc., priority 2017, published 2022)

Target: T1, hFXR (Homo sapiens, UniProt Q96RI1)
T1 construct: expressed in transfected cells; host or cells: CV-1 cells
T1 sequence (Q96RI1 1-486): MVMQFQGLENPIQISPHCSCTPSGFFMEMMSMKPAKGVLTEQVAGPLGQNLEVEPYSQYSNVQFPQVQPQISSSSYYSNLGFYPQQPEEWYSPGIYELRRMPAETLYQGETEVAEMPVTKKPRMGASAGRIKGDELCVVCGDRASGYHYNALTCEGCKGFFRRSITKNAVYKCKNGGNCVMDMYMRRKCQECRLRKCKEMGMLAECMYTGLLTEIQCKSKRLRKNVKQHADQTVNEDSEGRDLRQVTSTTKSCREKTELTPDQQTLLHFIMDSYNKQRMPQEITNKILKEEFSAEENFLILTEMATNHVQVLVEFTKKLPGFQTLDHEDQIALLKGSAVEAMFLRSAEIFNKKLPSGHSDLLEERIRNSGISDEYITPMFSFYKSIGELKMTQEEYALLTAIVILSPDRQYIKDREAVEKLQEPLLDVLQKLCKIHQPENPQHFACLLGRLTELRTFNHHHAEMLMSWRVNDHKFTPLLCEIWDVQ
T1 sequence (P19793 1-462 partner): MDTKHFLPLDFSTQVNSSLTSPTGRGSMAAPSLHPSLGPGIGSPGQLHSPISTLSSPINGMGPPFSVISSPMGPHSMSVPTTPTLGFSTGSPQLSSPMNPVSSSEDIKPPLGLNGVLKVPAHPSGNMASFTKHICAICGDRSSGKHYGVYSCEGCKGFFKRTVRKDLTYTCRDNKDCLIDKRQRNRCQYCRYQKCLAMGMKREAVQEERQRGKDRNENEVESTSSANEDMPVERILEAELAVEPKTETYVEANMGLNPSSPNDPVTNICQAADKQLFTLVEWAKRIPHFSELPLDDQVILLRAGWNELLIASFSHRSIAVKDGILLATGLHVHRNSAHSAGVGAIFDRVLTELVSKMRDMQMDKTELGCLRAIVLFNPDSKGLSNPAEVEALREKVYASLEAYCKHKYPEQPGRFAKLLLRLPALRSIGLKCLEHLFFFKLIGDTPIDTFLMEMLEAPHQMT
Experiment: In Vitro FXR Assay (TK): TK-ECRE-luc reporter in transfected CV-1 cells
Type: cell-based
Details: 18 hrs, luminescence, maximum efficacy of <25% of the Fexarmine control classified as '+'
Procedure, shortened: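 CV-1, transient co-transfection: hFXR + hRXR + TK-ECRE-luc + pCMX-YFP; charcoal-stripped serum. 18 h post-transfection, DMSO serial dilutions of cpd added; 18 h incubation; lysis, luminescence.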

EC50 | Compound
≤ 250 nM | CNC(=O)OCC(=O)N[C@H]1CC[C@H](C(=O)N(C[C@H]2CC[C@H](c3ccc(OC)c(C)c3)CC2)c2cccc(-c3cnn(C4CC4)c3)c2)CC1 [Compound 26.04, 2-((trans-4-((3-(1-Cyclopropyl-1H-pyrazol-4-yl)phenyl)((trans-4-(4-methoxy-3-methylphenyl)cyclohexyl)methyl)carbamoyl)cyclohexyl)amino)-2-oxoethyl methylcarbamate]
≤ 250 nM | COc1ccc([C@H]2CC[C@H](CN(c3cc(-c4coc(C5CC5)n4)ccn3)C(=O)[C@H]3CC[C@H](C(=O)O)CC3)CC2)cc1C [Compound 18.02, trans-4-((4-(2-Cyclopropyloxazol-4-yl)pyridine-2-yl)((trans-4-(4-methoxy-3-methylphenyl)cyclohexyl)methyl)carbamoyl)cyclohexanecarboxylic acid]
≤ 250 nM | COc1ccc([C@H]2CC[C@H](CN(c3cccc(-c4cnn(C5CC5)c4)c3)C(=O)[C@H]3CC[C@H](CC(=O)O)CC3)CC2)cc1C#N [Compound 20.11, 2-(trans-4-(((trans-4-(3-Cyano-4-methoxyphenyl)cyclohexyl)methyl)(3-(1-cyclopropyl-1H-pyrazol-4-yl)phenyl)carbamoyl)cyclohexyl)acetic acid]
≤ 250 nM | COc1ccc([C@H]2CC[C@H](CN(c3cc(-c4cnn(C5CC5)c4)ccn3)C(=O)[C@H]3CC[C@H](CC(=O)O)CC3)CC2)cc1C [Compound 20.10, 2-(trans-4-((4-(1-Cyclopropyl-1H-pyrazol-4-yl)pyridin-2-yl)((trans-4-(4-methoxy-3-methylphenyl)cyclohexyl)methyl)carbamoyl)cyclohexyl)acetic acid]
≥ 1000 nM | COc1ncc(-c2cccc(N(C[C@H]3CC[C@H](c4ccc(OC)c(C)c4)CC3)C(=O)[C@H]3CC[C@H](OCc4ccccc4)CC3)c2)s1 [Compound 18.11, trans-4-(Benzyloxy)-N-((trans-4-(4-methoxy-3-methylphenyl)cyclohexyl)methyl)-N-(3-(2-methoxythiazol-5-yl)phenyl)cyclohexanecarboxamide]
≥ 1000 nM | COc1ccc([C@H]2CC[C@H](CN(c3cc(-c4coc(C5CC5)n4)ccn3)C(=O)[C@H]3CC[C@H](CN)CC3)CC2)nc1C [Compound 26.22, trans-4-(Aminomethyl)-N-(4-(2-cyclopropyloxazol-4-yl)pyridin-2-yl)-N-((trans-4-(5-methoxy-6-methylpyridin-2-yl)cyclohexyl)methyl) cyclohexanecarboxamide]

The next lines start with the molecule.

Compound | EC50
CN(C)c1ccc([C@H]2CC[C@H](CN(c3cccc(-c4cnc(C5CC5)s4)c3)C(=O)[C@H]3CC[C@H](OC(=O)NCCO)CC3)CC2)cn1 [Compound 6.01, 4-((3-(2-Cyclopropylthiazol-5-yl)phenyl) ((trans-4-(6-(dimethylamino)pyridin-3-yl)cyclohexyl)methyl)carbamoyl) cyclohexyl (2-hydroxyethyl)trans-carbamate] | ≤ 250 nM
COc1ccc([C@H]2CC[C@H](CN(c3cc(-c4coc(C5CC5)n4)ccn3)C(=O)[C@H]3CC[C@H](OC(=O)NCCO)CC3)CC2)cc1C#N [Compound 6.54, trans-4-(((trans-4-(3-Cyano-4-methoxyphenyl)cyclohexyl)methyl)(4-(2-cyclopropyloxazol-4-yl)pyridine-2-yl)carbamoyl)cyclohexyl (2-hydroxyethyl)carbamate] | ≤ 250 nM
COc1ccc([C@H]2CC[C@H](CN(c3cc(-c4cnn(C(C)C)c4)ccn3)C(=O)[C@H]3CC[C@H](OC(=O)NC4CC4)CC3)CC2)nc1C#N [Compound 6.33, trans-4-(((trans-4-(6-Cyano-5-methoxypyridin-2-yl)cyclohexyl)methyl) (4-(1-isopropyl-1H-pyrazol-4-yl)pyridin-2-yl)carbamoyl)cyclohexyl cyclopropylcarbamate] | ≤ 250 nM
COc1ccc([C@H]2CC[C@H](CN(c3cc(-c4coc(C5CC5)n4)ccn3)C(=O)[C@H]3CC[C@H](OC(=O)N4CCN(C)CC4)CC3)CC2)nc1C [Compound 6.65, trans-4-((4-(2-Cyclopropyloxazol-4-yl)pyridine-2-yl)((trans-4-(5-methoxy-6-methylpyridin-2-yl)cyclohexyl)methyl)carbamoyl)cyclohexyl 4-methylpiperazine-1-carboxylate] | ≤ 250 nM
COc1ccc([C@H]2CC[C@H](CN(c3cccc(-c4cnn(C5CC5)c4)c3)C(=O)[C@H]3CC[C@H](OC(=O)N4CC(CO)C4)CC3)CC2)cc1C [Compound 7.28, trans-4-((3-(1-Cyclopropyl-1H-pyrazol-4-yl)phenyl)((trans-4-(4-methoxy-3-methylphenyl)cyclohexyl)methyl)carbamoyl)cyclohexyl 3-(hydroxymethyl)azetidine-1-carboxylate] | ≤ 250 nM
COc1ccc([C@H]2CC[C@H](CN(c3cccc(-c4cnn(C(C)C)c4)c3)C(=O)[C@H]3CC[C@H](OC(=O)N4CC(OC)C4)CC3)CC2)nc1C [Compound 7.52, trans-4-((3-(1-Isopropyl-1H-pyrazol-4-yl)phenyl)((trans-4-(5-methoxy-6-methylpyridin-2-yl)cyclohexyl)methyl)carbamoyl)cyclohexyl 3-methoxyazetidine-1-carboxylate] | ≤ 250 nM
COc1ccc([C@H]2CC[C@H](CN(c3cc(-c4coc(C5CC5)n4)ccn3)C(=O)[C@H]3CC[C@H](OC(=O)N4CC(C(C)C)C4)CC3)CC2)nc1C [Compound 7.102, trans-4-((4-(2-Cyclopropyloxazol-4-yl)pyridine-2-yl)((trans-4-(5-methoxy-6-methylpyridin-2-yl)cyclohexyl)methyl)carbamoyl)cyclohexyl 3-isopropylazetidine-1-carboxylate] | ≤ 250 nM
COc1ccc([C@H]2CC[C@H](CN(c3cccc(-c4coc(C(C)C)n4)c3)C(=O)[C@H]3CC[C@H](OC(=O)N4CC(O)C4)CC3)CC2)nc1C [Compound 7.65, trans-4-((3-(2-Isopropyloxazol-4-yl)phenyl)((trans-4-(5-methoxy-6-methylpyridin-2-yl)cyclohexyl)methyl)carbamoyl)cyclohexyl 3-hydroxyazetidine-1-carboxylate] | ≤ 250 nM
CNC(=O)O[C@H]1CC[C@H](C(=O)N(C[C@H]2CC[C@H](c3ccc(OC)c(C#N)c3)CC2)c2cccc(-c3cnn(C(C)C)c3)c2)CC1 [Compound 5.15, trans-4-(((trans-4-(3-Cyano-4-methoxyphenyl)cyclohexyl)methyl)(3-(1-Isopropyl-1H-pyrazol-4-yl)phenyl)carbamoyl)cyclohexyl methylcarbamate] | ≤ 250 nM
COc1ccc([C@H]2CC[C@H](CN(c3cc(-c4coc(C5CC5)n4)ccn3)C(=O)[C@H]3CC[C@H](OC(=O)NC[C@H](O)CO)CC3)CC2)nc1C [Compound 6.66, trans-4-((4-(2-Cyclopropyloxazol-4-yl)pyridine-2-yl)((trans-4-(5-methoxy-6-methylpyridin-2-yl)cyclohexyl)methyl)carbamoyl)cyclohexyl ((S)-2,3-dihydroxypropyl)carbamate] | 250 to 1000 nM
CNC(=O)O[C@H]1CC[C@H](C(=O)N(C[C@H]2CC[C@H](c3ccc(N(C)C)nc3)CC2)c2cccc(-c3coc(C4CC4)n3)c2)CC1 [Compound 3.05, trans-4-((3-(2-Cyclopropyloxazol-4-yl)phenyl)((trans-4-(6-(dimethylamino)pyridine-3-yl)cyclohexyl)methyl)carbamoyl)cyclohexyl methylcarbamate] | ≤ 250 nM
